Measured values reported in patent publication US20120301457A1 (priority 2010, published 2012).

These compounds were tested against recombinant mouse PrP (Mus musculus, UniProt P04925).
Type: biochemical

Row | Compound | ability to facilitate amplification and propagation of PrP^Sc
1 | CCCCCCCCCCCCCCCC(=O)OC[C@H](COP(=O)(O)OCCN)OC(=O)CCCCCCCCCCCNc1ccc([N+](=O)[O-])c2nonc12 [16:0-12:0 NBD PE, 1-palmitoyl-2-{12-[(7-nitro-2-1,3-benzoxadiazol-4-yl)amino]lauroyl}-sn-glycero-3-phosphoethanolamine] | successfully facilitated propagation
2 | CCCCCCCC/C=C\CCCCCCCC(=O)O[C@H](COC(=O)CCCCCCCCCCCCCCC)COP(=O)(O)OCCN [16:0-18:1 PE, 1-palmitoyl-2-oleoyl-sn-glycero-3-phosphoethanolamine] | successfully facilitated propagation
3 | CCCCCCCC/C=C\CCCCCCCC(=O)O[C@H](CO/C=C\CCCCCCCCCCCCCCCC)COP(=O)(O)OCCN [C18(Plasm)-18:1 PE, 1-(1Z-octadecenyl)-2-oleoyl-sn-glycero-3-phosphoethanolamine] | successfully facilitated propagation
4 | CCCCC/C=C\C/C=C\C/C=C\C/C=C\CCCC(=O)O[C@H](CO/C=C\CCCCCCCCCCCCCCCC)COP(=O)(O)OCCN [C18(Plasm)-20:4 PE, 1-(1Z-octadecenyl)-2-arachidonoyl-sn-glycero-3-phosphoethanolamine] | successfully facilitated propagation
5 | cerebrosides | facilitate prion amplification to a lesser extent
6 | phosphatidic acid | facilitate prion amplification to a lesser extent
7 | phosphatidylcholine | facilitate prion amplification to a lesser extent
8 | phosphatidylglycerol | facilitate prion amplification to a lesser extent
9 | phosphatidylinositol | facilitate prion amplification to a lesser extent
10 | phosphatidylserine | facilitate prion amplification to a lesser extent
11 | sulfatides | facilitate prion amplification to a lesser extent
